experiment: Inhibition of leukotriene release in ICR mouse BMCMC […] after 6 hrs by ELISA; type: functional

Point of comparison: `CC1=CC(=O)CC(C)(C)[C@]1(O)/C=C/[C@@H](C)O[C@@H]1O[C@H](CO)[C@@H](O)[C@H](O)[C@H]1O`, “inhibition (INH)” value 22.9%. Against it:
- CC1=CC(=O)CC(C)(C)[C@]1(O)/C=C/[C@H](C)O[C@@H]1O[C@H](CO)[C@@H](O)[C@H](O)[C@H]1O — higher, 36.7%
- CC1=CC(=O)CC(C)(C)[C@@]1(O)/C=C/[C@@H](C)O[C@@H]1O[C@H](CO)[C@@H](O)[C@H](O)[C@H]1O [6S,9R-ROSEOSIDE] — higher, 67.4%
- CC1=CC(=O)CC(C)(C)[C@@]1(O)/C=C/[C@H](C)O[C@@H]1O[C@H](CO)[C@@H](O)[C@H](O)[C@H]1O [6S,9S-ROSEOSIDE] — higher, 70.3%
